In US8653305B2, “Compound having S1P receptor binding potency and use thereof” (Ono Pharmaceutical Co., Ltd., priority 2004, dated 2014):

What was measured:
Human EDG-1 = molecular target: T1, Human EDG-1 (Homo sapiens, UniProt P21453); assay: Agonistic activity against EDG by monitoring changes in intracellular calcium ion [Ca^2+]i concentration; format: cell-based; conditions: Human EDG-1 overexpressing CHO cells; Fura2-AM; control 100 nM S1P; read-out: EC50 of agonistic activity against EDG-1 (increase ratio of intracellular calcium ion concentration)
T1 construct: expressed in transfected cells; host or cells: CHO cells
Description: Evaluation of an Agonistic Activity Against EDG of the Compound of the Present Invention by Monitoring Changes in Intracellular Calcium Ion [Ca^2+]i Concentration
Human EDG-1, EDG-3, EDG-5 or EDG-8 gene overexpressing CHO cells were cultured in Ham's F12 medium (manufactured by GIBCO BRL) containing 10% FBS (fetal bovine serum), penicillin/streptomycin and blasticidin (5 μg/ml). The cultured cells were incubated in a 5 μM Fura2-AM solution (Ham's F12 medium containing 10% of FBS, 20 mM HEPES buffer (pH7.4), and 2.5 mM probenecid) at 37° C. for 60 minutes. After washing once with Hanks solution containing 20 mM HEPES buffer (pH7.4), and 2.5 mM probenecid, the plate was soaked in the same solution until assay. Then, the plate was set on a fluorescent drug screening system (FDSS 6000; Hamamatsu Photonics) and the intracellular calcium ion concentration was measured without stimulation for 30 seconds. A test compound (final concentration: 1 nM to 10 μM, dimethylsulfoxide (DMSO) solution) was added and S1P (final concentration: 100 nM) was added 5 minutes thereafter. Then, the increase in the intracellular calcium ion concentration was measured before and after the addition of S1P at intervals of 3 seconds (excitation wavelength: 340 nm and 380 nm, fluorescence wavelength: 500 nm). […]

EDG-6 = molecular target: T2, EDG-6 (Homo sapiens, UniProt O95977); assay: Inhibitory activity on binding of [^3H]-PhS1P to EDG-6; conditions: cell membrane fraction of EDG-6-overexpressing CHO cell; 10 nmol/L [^3H]-PhS1P solution; read-out: IC50 of inhibition of binding of [^3H]-PhS1P to EDG-6
T2 construct: expressed in transfected cells; host or cells: Chinese Hamster Ovary (CHO) cells, membrane fraction
T2 sequence (O95977 1-384): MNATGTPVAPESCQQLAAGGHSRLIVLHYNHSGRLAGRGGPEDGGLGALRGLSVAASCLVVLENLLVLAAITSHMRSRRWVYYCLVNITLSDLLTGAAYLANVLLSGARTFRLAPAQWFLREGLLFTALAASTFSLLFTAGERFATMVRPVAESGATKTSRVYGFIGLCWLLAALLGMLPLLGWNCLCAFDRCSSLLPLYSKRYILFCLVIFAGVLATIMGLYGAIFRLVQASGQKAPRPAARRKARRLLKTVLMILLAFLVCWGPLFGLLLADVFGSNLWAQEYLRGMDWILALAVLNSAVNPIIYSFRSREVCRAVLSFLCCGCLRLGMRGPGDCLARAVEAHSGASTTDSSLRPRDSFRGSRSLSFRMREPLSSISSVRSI
Description: Measurement of Inhibitory Activity of the Compound of the Present Invention on Binding of [^3H]-PhS1P to EDG-6
By using cell membrane fraction of an EDG-6-overexpressing Chinese Hamster Ovary (CHO) cell and 1 mg protein/mL of the membrane fraction, reaction was carried out in a 96-well plate. Into each well, 80 μL of a vehicle (DMSO) solution diluted with 2× binding buffer (100 mmol/L Tris pH 7.5, 200 mM NaCl, 30 mM NaF, 1% BSA) or a ligand solution having a twice higher concentration and 40 μL of 10 nmol/L [^3H]-PhS1P (5,5,6,6,-[…] phytosphingosine 1-phosphate: This was prepared in the following manner. A compound (anti-7-tert-butyl (4S)-4-[(1S,2R)-1-(benzyloxy)-2-hydroxyhexadec-3-yn-1-yl]-2,2-dimethyl-1,3-oxazolizine-3-carboxylate) prepared in accordance with a method reported in a document (Tetrahedron Lett., 38(34), 6027-6030 (1997)) was reacted with benzyl bromide in tetrahydrofuran in the presence of potassium hexamethyldisilylamide to thereby protect the hydroxy group of the compound. Then, it was treated in hydrogen chloride/methanol solution to remove an acetonide group. The compound thus obtained was reacted with N,N-diethyl-1,5-dihydro-2,4,3-benzodioxaphosphepin-3-amine in dichloromethane in the presence of tetrazole and then oxidized with m-chloroperbenzoic acid. Then, it was reacted in the presence of ASCA-2 catalyst (manufactured by NE Chemcat, 4.5% palladium-0.5% platinum catalyst carried on active carbon, see, Fine Chemical, Oct. 1, 2002, pages 5 to 14) in methanol under a tritium atmosphere. The obtained compound was treated with a 4 N hydrogen chloride/1,4-dioxane solution in dichloromethane to thereby obtain the desired compound) were added. Further, 40 μl of the membrane fraction solution was added and reacted at room temperature for 60 minutes. […] Then, 50 μl/well of Micro Scint 20 was added and the plate was covered with Top Seal-P. Then the radioactivity was measured with Top Count (Perkin Elmer).

T1 sequence (P21453 whole entry): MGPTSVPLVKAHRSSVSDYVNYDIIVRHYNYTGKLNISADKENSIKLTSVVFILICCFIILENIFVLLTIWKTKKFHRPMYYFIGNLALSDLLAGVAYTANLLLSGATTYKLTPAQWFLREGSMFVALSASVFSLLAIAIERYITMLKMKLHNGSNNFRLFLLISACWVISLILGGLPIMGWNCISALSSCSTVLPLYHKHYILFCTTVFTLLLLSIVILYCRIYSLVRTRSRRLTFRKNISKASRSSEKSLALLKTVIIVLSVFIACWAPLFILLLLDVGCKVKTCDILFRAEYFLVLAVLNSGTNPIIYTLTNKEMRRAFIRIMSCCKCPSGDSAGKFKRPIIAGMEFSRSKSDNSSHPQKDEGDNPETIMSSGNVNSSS

Work on `c1ccc(CCCCOc2ccc3cc(CN4CCCCC4)ccc3c2)cc1` [Example 5, 1-{[6-(4-phenylbutoxy)-2-naphthyl]methyl}piperidine] yielded an EC50 (Human EDG-1) of 7800 nM.

`O=C(NS(=O)(=O)c1ccccc1)C1CN(Cc2ccc3cc(OCCCc4ccccc4)ccc3c2)C1` [Example 6] showed an EC50 (Human EDG-1) of 250 nM.

With `CCNCC1=C(C)c2ccc(OCC(C)Cc3ccc(F)cc3)cc2CC1` (centres unmarked) [Example 27, N-({6-[3-(4-fluorophenyl)-2-methylpropoxy]-1-methyl-3,4-dihydro-2-naphthalenyl}methyl)ethanamine] the IC50 (EDG-6) was 26 nM.

In the case of `COc1cc(CC(C)C)ccc1COc1ccc2c(c1)CCC(CN1CC(CO)C1)=C2C` [Example 37-1, [1-({6-[(4-isobutyl-2-methoxybenzyl)oxy]-1-methyl-3,4-dihydro-2-naphthalenyl}methyl)-3-azetidinyl]methanol], the IC50 (EDG-6) is reported as 98 nM.

`COc1cc(CC(C)C)ccc1COc1ccc2c(c1)CCC(CN1CCN(c3ccccn3)CC1)=C2C` [Example 66-24, 1-({6-[(4-isobutyl-2-methoxybenzyl)oxy]-1-methyl-3,4-dihydro-2-naphthalenyl}methyl)-4-(2-pyridinyl)piperazine] showed an IC50 (EDG-6) of 81 nM.
